Experimental data as given in US20230122249A1, “1H-PYRAZOLO[4,3-d]PYRIMIDINE COMPOUNDS AS TOLL-LIKE RECEPTOR 7 (TLR7) AGONISTS” (BRISTOL-MYERS SQUIBB COMPANY, priority 2020, published 2023).

Molecular target: T1, human TLR7 (Homo sapiens, UniProt Q9NYK1)
T1 construct: host or cells: HEK-Blue TLR7 cells (engineered human embryonic kidney cells)
T1 sequence (Q9NYK1 27-1049): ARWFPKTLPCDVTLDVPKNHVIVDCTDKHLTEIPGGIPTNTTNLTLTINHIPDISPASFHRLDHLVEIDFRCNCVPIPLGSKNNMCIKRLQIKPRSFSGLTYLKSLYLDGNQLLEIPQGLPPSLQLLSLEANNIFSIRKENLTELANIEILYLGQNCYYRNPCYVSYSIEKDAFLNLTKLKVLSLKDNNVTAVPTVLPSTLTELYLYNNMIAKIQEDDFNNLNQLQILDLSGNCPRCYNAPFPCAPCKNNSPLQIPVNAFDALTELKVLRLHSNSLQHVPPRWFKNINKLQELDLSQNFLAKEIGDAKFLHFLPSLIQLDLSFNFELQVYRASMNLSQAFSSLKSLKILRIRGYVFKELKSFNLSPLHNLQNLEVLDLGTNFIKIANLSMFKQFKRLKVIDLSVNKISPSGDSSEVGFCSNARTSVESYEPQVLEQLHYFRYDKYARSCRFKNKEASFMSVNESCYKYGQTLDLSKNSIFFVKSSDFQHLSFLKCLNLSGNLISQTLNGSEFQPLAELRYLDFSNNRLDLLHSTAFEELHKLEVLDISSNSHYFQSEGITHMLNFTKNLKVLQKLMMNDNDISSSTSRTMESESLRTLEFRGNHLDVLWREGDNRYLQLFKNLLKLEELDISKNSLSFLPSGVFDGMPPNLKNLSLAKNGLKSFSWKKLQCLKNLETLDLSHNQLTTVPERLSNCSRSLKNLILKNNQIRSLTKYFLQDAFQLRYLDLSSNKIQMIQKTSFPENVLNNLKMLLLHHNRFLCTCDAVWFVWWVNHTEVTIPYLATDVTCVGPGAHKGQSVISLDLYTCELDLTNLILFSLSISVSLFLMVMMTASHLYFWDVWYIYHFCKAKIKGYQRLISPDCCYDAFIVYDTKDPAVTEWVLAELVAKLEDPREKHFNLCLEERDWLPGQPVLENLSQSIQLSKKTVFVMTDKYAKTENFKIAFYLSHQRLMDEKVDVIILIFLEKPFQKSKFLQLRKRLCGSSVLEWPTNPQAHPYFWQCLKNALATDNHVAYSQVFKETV
Test: Human TLR7 agonist activity (hTLR7 reporter) assay in HEK-Blue TLR7 cells, SEAP readout
Format: cell-based
Details: 18 h treatment, average where assay repeated
Description: This procedure describes a method for assaying human TLR7 (hTLR7) agonist activity of the compounds disclosed in this specification.
HEK-Blue™ TLR7 cells were added to each well of a 384-well tissue-culture plate (15,000 cells per well) and incubated 16-18 h at 37° C., 5% CO2. Compounds (100 nl) were dispensed into wells containing the HEK-Blue™ TLR cells and the treated cells were incubated at 37° C., 5% CO2. After 18 h treatment ten microliters of freshly-prepared Quanti-Blue™ reagent (Invivogen) was added to each well, incubated for 30 min (37° C., 5% CO2) and SEAP levels measured using an Envision plate reader (OD=620 nm). The half maximal effective concentration values (EC50; compound concentration which induced a response halfway between the assay baseline and maximum) were calculated.

EC50 | Compound
1230 nM | COc1cc(CN2CC3(C2)CN(C(C)=O)C3)ccc1Cn1ncc2nc(N)nc(NCC3CC34CC4)c21 (stereo not shown) [Compound 109]
254 nM | COc1cc(C(=O)N2C[C@@H]3C[C@H]2CN3)ccc1Cn1ncc2nc(N)nc(NCC3CC4(CCC4)C3)c21 [Compound 181]
234 nM | COc1cc(CN2CC3(CN(C)C3)C2)ccc1Cn1ncc2nc(N)nc(NCC3CC4(CC4)C3)c21 [Compound 131]
198 nM | CCCCNc1nc(N)nc2cnn(Cc3ccc(CN4CC5(CCNC5)C4)cc3OC)c12 [Compound 257]
67.6 nM | COc1cc(C(=O)N2CC3(CN(C)C3)C2)ccc1Cn1ncc2nc(N)nc(NCc3cc(C)on3)c21 [Compound 214]
785 nM | COc1cc(C(=O)N2CC3(CNC3)C2)ccc1Cn1ncc2nc(N)nc(NCC3CC4(CC4)C3)c21 [Compound 172]
58.5 nM | CCCCNc1nc(N)nc2cnn(Cc3ccc(CN4CCC5(CCN(CCO)C5)C4)cc3OC)c12 (stereo not shown) [Compound 267]
482 nM | COc1cc(CN2CCN(CCO)CC2)ccc1Cn1ncc2nc(N)nc(NCC3CC4(C3)CC(F)(F)C4)c21 [Compound 185]
242 nM | CCC[C@@H](CCO)Nc1nc(N)nc2cnn(Cc3ccc(C(=O)N4CC5(CNC5)C4)cc3OC)c12 [Compound 209]
59.2 nM | COc1cc(CN2C[C@H]3C[C@@H]2CN3C)ccc1Cn1ncc2nc(N)nc(NCC3CC4(C3)CC4F)c21 (stereo partly shown) [Compound 125]
137 nM | COc1cc(CN2C[C@H]3CN(C)C[C@H]3C2)ccc1Cn1ncc2nc(N)nc(NCC3CC4(C3)CC4F)c21 (stereo partly shown) [Compound 118]
244 nM | COc1cc(CN2CC3(CN(C)C3)C2)ccc1Cn1ncc2nc(N)nc(NCC3CC4(C3)CC4(F)F)c21 (stereo not shown) [Compound 138]
244 nM | COc1cc(CN2C[C@H]3CNC[C@H]3C2)ccc1Cn1ncc2nc(N)nc(NCC3CC4(C3)CC4F)c21 (stereo partly shown) [Compound 126]
354 nM | COc1cc(C(=O)N2CCOCC2)ccc1Cn1ncc2nc(N)nc(NCC3CC4(C3)CC4(F)F)c21 (stereo not shown) [Compound 161]
60 nM | CCCCNc1nc(N)nc2cnn(Cc3ccc(CN4CC5(C4)CN(C(=O)C(C)(C)C)C5)cc3OC)c12 [Compound 105]
84.1 nM | COc1cc(CNC2CCC2)ccc1Cn1ncc2nc(N)nc(NCC3CC4(C3)CC4F)c21 (mixture of isomers) [Compound 115]
163 nM | COc1cc(CNC2CCOCC2)ccc1Cn1ncc2nc(N)nc(NCC3CC4(C3)CC4F)c21 (stereo not shown) [Compound 116]
241 nM | COc1cc(CN2CC3(C2)CN(C(C)=O)C3)ccc1Cn1ncc2nc(N)nc(NCC3CC4(C3)CC4(F)F)c21 (stereo not shown) [Compound 122]
638 nM | COc1cc(C(=O)NC2CCN(C)CC2)ccc1Cn1ncc2nc(N)nc(NCC3CC4(C3)CC4(F)F)c21 (stereo not shown) [Compound 164]
95.4 nM | CCCCNc1nc(N)nc2cnn(Cc3ccc(CN4CC5(C4)CC(F)(F)C5)cc3OC)c12 [Compound 102]

EC50 | Compound
138 nM | CCCCNc1nc(N)nc2cnn(Cc3ccc(CN4CC5(C4)CN(C(=O)CC(C)C)C5)cc3OC)c12 [Compound 104]
349 nM | COc1cc(CN2CC3(C2)CN(C(=O)C2(C)CC2)C3)ccc1Cn1ncc2nc(N)nc(NCC3CC4(C3)CC4F)c21 (stereo not shown) [Compound 128]
31.9 nM | CCCCNc1nc(N)nc2cnn(Cc3ccc(CN4CC5(C4)CN(C(=O)C4CCC4)C5)cc3OC)c12 [Compound 110]
497 nM | COc1cc(C(=O)N(C)C)ccc1Cn1ncc2nc(N)nc(NCC3CC4(C3)CC4(F)F)c21 (stereo not shown) [Compound 162]
320 nM | COc1cc(CN2CC3(C2)CN(C(C)C2(C)CC2)C3)ccc1Cn1ncc2nc(N)nc(NCC3CC4(C3)CC4(F)F)c21 (stereo not shown) [Compound 123]
68.1 nM | COc1cc(CNC2CCC2)ccc1Cn1ncc2nc(N)nc(NCC3CC4(C3)CC4(F)F)c21 (mixture of isomers) [Compound 136]
193 nM | COc1cc(CN2C[C@@H]3C[C@H]2CN3)ccc1Cn1ncc2nc(N)nc(NCC3CC4(C3)CC4F)c21 (stereo partly shown) [Compound 124]
69.8 nM | COc1cc(CN2CC3(CCOCC3)C2)ccc1Cn1ncc2nc(N)nc(NCC3CC4(CC4)C3)c21 [Compound 135]
435 nM | COc1cc(CN2C[C@H]3CNC[C@H]3C2)ccc1Cn1ncc2nc(N)nc(NCC3CC4(C3)CC4(F)F)c21 (stereo partly shown) [Compound 140]
69.5 nM | COc1cc(CN2CC3(CC(OC)C3)C2)ccc1Cn1ncc2nc(N)nc(NCC3CC4(C3)CC4(F)F)c21 (stereo not shown) [Compound 144]
16.6 nM | COc1cc(CN2C[C@H]3C[C@@H]2CN3C)ccc1Cn1ncc2nc(N)nc(NCC3CC4(CC4)C3)c21 [Compound 134]
147 nM | COc1cc(C(=O)N2CCN(C)CC2)ccc1Cn1ncc2nc(N)nc(NCC3CC4(C3)CC4(F)F)c21 (stereo not shown) [Compound 165]
24.4 nM | COc1cc(CNC2CCC2)ccc1Cn1ncc2nc(N)nc(NCC3CC4(CC4)C3)c21 [Compound 129]
3.4 nM | CCC[C@@H](CCO)Nc1nc(N)nc2cnn(Cc3ccc(CNC4CCOCC45CCC5)cc3OC)c12 (stereo partly shown) [Compound 114]
49.7 nM | COc1cc(CN2C[C@H]3C[C@@H]2CN3C)ccc1Cn1ncc2nc(N)nc(NCC3CC4(C3)CC4(F)F)c21 (stereo partly shown) [Compound 142]
262 nM | COc1cc(CN2CC3(CN(C)C3)C2)ccc1Cn1ncc2nc(N)nc(NCC3CC4(C3)CC4F)c21 (stereo not shown) [Compound 120]
88.1 nM | COc1cc(CNC2CCOCC2)ccc1Cn1ncc2nc(N)nc(NCC3CC4(C3)CC4(F)F)c21 (stereo not shown) [Compound 137]
103 nM | COc1cc(CN2CC3(CC(O)C3)C2)ccc1Cn1ncc2nc(N)nc(NCC3CC4(C3)CC4(F)F)c21 (stereo not shown) [Compound 143]
39.7 nM | COc1cc(CNC2CCOCC2)ccc1Cn1ncc2nc(N)nc(NCC3CC4(CC4)C3)c21 [Compound 130]
2580 nM | COc1cc(C(=O)N2CC3(CC(O)C3)C2)ccc1Cn1ncc2nc(N)nc(NCC3CC4(C3)CC4(F)F)c21 (stereo not shown) [Compound 160]

System: CD69 in human whole blood
Test: Induction of CD69 in human whole blood (hWB)
Format: cell-based
Details: heparinized human whole blood, 17 h, CD69 surface staining; 100% set to 1 uM resiquimod; average where assay repeated
Description: The induction of Type I interferon (IFN) MX-1 genes and the B-cell activation marker CD69 are downstream events that occur upon activation of the TLR7 pathway. The following is a human whole blood assay that measures their induction in response to a TLR7 agonist.
Heparinized human whole blood was harvested from human subjects and treated with test TLR7 agonist compounds at 1 mM. The blood was diluted with RPMI 1640 media and Echo was used to predot 10 nL per well giving a final concentration of 1 uM (10 nL in 10 uL of blood). After mixing on a shaker for 30 sec, the plates were covered and placed in a 37° C. chamber for o/n=17 hrs. Fixing/lysis buffer was prepared (5×->1×in H2O, warm at 37° C.; Cat# BD 558049) and kept the perm buffer (on ice) for later use.
For surface markers staining (CD69): prepared surface Abs: 0.045 ul hCD14-FITC (ThermoFisher Cat # MHCD1401)+0.6 ul hCD19-ef450 (ThermoFisher Cat #48-0198-42)+1.5 ul hCD69-PE (cat# BD555531)+0.855 ul FACS buffer. Added 3 ul/well, spin1000 rpm for 1 min and mixed on shaker for 30 sec, put on ice for 30 mins. Stop stimulation after 30 minutes with 70 uL of prewarmed 1×fix/lysis buffer and use Feliex mate to resuspend (15 times, change tips for each plate) and incubate at 37° C. for 10 minutes.
Centrifuge at 2000 rpm for 5 minutes aspirate with HCS plate washer, mix on shaker for 30 sec and then wash with 70 uL in dPBS and pelleted 2 xs (2000 rpm for 5 min) and 50 ul wash in FACS buffer pelleted 1 xs(2000 rpm for 5 min). Mix on shaker for 30 sec. For Intracellular markers staining (MX-1): Add 50 ul of BD Perm buffer III and mix on shaker for 30 sec. Incubate on ice for 30 minutes (in the dark). Wash with 50 uL of FACS buffer 2×(spin @2300 rpm×5 min after perm) followed by mixing on shaker for 30 sec. Resuspended in 20 ul of FACS buffer containing MX1 antibody ( )(4812)-Alexa 647: Novus Biologicals #NBP2-43704AF647) 20 ul FACS bf+0.8 ul hlgG+0.04 ul MX-1. Spin 1000 rpm for 1 min, mix on shaker for 30 se and the samples were incubated at RT in the dark for 45 minutes followed by washing 2×FACS buffer (spin @2300 rpm×5 min after perm). Resuspend 20 ul (35 uL total per well) of FACS buffer and cover with foil and place in 4° C. to read the following day. Plates were read on iQuePlus. The results were loaded into toolset and […] curves are generated in curve master. The y-axis 100% is set to 1 uM of resiquimod.

EC50 | Compound
110 nM | COc1cc(C(=O)N2C[C@@H]3C[C@H]2CN3)ccc1Cn1ncc2nc(N)nc(NCC3CC4(CCC4)C3)c21 [Compound 181]
4.6 nM | COc1cc(CN2CC3(CN(C)C3)C2)ccc1Cn1ncc2nc(N)nc(NCC3CC4(CC4)C3)c21 [Compound 131]
4.8 nM | CCCCNc1nc(N)nc2cnn(Cc3ccc(CN4CC5(CCNC5)C4)cc3OC)c12 [Compound 257]
10.9 nM | COc1cc(C(=O)N2CC3(CN(C)C3)C2)ccc1Cn1ncc2nc(N)nc(NCc3cc(C)on3)c21 [Compound 214]
300 nM | COc1cc(C(=O)N2CC3(CNC3)C2)ccc1Cn1ncc2nc(N)nc(NCC3CC4(CC4)C3)c21 [Compound 172]
1.3 nM | CCCCNc1nc(N)nc2cnn(Cc3ccc(CN4CCC5(CCN(CCO)C5)C4)cc3OC)c12 (stereo not shown) [Compound 267]
117 nM | COc1cc(CN2CCN(CCO)CC2)ccc1Cn1ncc2nc(N)nc(NCC3CC4(C3)CC(F)(F)C4)c21 [Compound 185]
195 nM | CCC[C@@H](CCO)Nc1nc(N)nc2cnn(Cc3ccc(C(=O)N4CC5(CNC5)C4)cc3OC)c12 [Compound 209]
61.9 nM | COc1cc(CN2CC3(C2)CN(C(C)=O)C3)ccc1Cn1ncc2nc(N)nc(NCc3cc(C)on3)c21 [Compound 212]
